According to US8309760B2, “Process for purification of aryl carboxylic acids” (University of Alabama, priority 2007, dated 2012):
Read-outs that look alike come from different tables or passages of the source.

Tests used:
[1] = type: physicochemical
Protocol: Examples illustrating the dissolution and aqueous reconstitution of terephthalic acid from ionic liquids follow the same general experimental protocol. However, it should be noted that the ionic liquids chosen are by far non-limiting examples of terephthalic acid dissolution in ionic liquids. To a vial containing 100 mg of an ionic liquid is added 10 mg of terephthalic acid and the mixture is heated to 75° C. to reduce the viscosity of the resulting liquid. The solution is stirred on a hot plate in an oil bath for 24 hours, whereupon the solutions are visually checked for dissolution. Aqueous reconstitution of the terephthalic acid is achieved by the addition of 500 mL deionized water (polished to 18.1-18.3 MΩ cm). Crystalline terephthalic acid separates from the ionic liquid as a flock, washed with copious amounts of deionized water and vacuum filtered, then dried in ambient conditions and ground with a spatula to give the desired crystalline terephthalic acid.

[2] = cited from earlier work

Row | solubility in various ionic liquids [1] | Structure (SMILES) | solubility of terephthalic acid in water ([2]; temperature of about 300° C.) | solubility in water ([2]; temperatures below about 200° C.) | solubility in water ([2]; no temperature given)
1 | soluble | O=C(O)c1ccc(C(=O)O)cc1 [terephthalic acid] | about 40% | insoluble | –
2 | – | O=Cc1ccc(C(=O)O)cc1 [4-Carboxybenzaldehyde, 4-carboxybenzaldehyde] | – | – | soluble
